For test [1], the system named is isolated ileum of guinea pigs. The test is described as follows: Spasmolysis of histamine-induced contraction on isolated guinea pig ileum, organ bath. The test is classed as cell-based. As to conditions: Cavia porcellus; histamine dihydrochloride as spasmogen, 0.2-2 μg/ml; at least six individual tests; read-out: ED50 on guinea pig ileum. As to the method: (§1) Experiments were carried out on the isolated ileum and on the isolated trachea of guinea pigs in a typical manner in vitro in a suitable organ bath. Histamine dihydrochloride was used as a spasmogen in a final concentration of 0.2-2 μg/ml, depending on the organ preparation. The activity of the compounds was determined from the reactive spasmolysis, i.e., the relative decrease in the force of contractions compared with zero dose. The concentration-action relation was calculated from the non-linear regression between dose and action from at least six individual tests.

For test [2], the system named is isolated trachea of guinea pigs. The test is described as follows: Spasmolysis of histamine-induced contraction on isolated guinea pig trachea, organ bath. The test is classed as cell-based. The conditions noted are these: Cavia porcellus; histamine dihydrochloride as spasmogen, 0.2-2 μg/ml; at least six individual tests; read-out: ED50 on the isolated tracheal preparation. As to the method: as §1

For test [3], the system named is histamine-induced skin weal in the mouse. The experiment in a line: Duration of inhibition of histamine-induced skin weal in the mouse after a single oral dose. The test is classed as in vivo. The conditions noted are these: oral administration of a comparable dose (to 6 mg/kg). As to the method: The experiments were carried out on male NMRI mice with a body weight of 25-30 g. […] The dyestuff concentration determined by photometry in a defined area of skin can be designated a measure of the antihistamine activity.

Converted amounts (≈) assume the structure as drawn.

Take `COc1cccc(CN2CCC(C(O)(c3ccccc3)c3ccccc3)CC2)c1` [[4-(Hydroxydiphenylmethyl)-1-piperidyl]-(3-methoxyphenyl)methane]: the IC50 in test [1] was 0.029 µg/mL (≈ 0.0748 µM); in test [2], 3.5 µg/mL (≈ 9.03 µM).
`CC(C)(C)c1ccc(C(O)CCCN2CCC(C(O)(c3ccccc3)c3ccccc3)CC2)cc1` (stereo not drawn) [terfenadine, α-[4-(1,1-Dimethylethyl)phenyl]-4-(hydroxydiphenylmethyl)-1-piperidinobutanol]: the IC50 in test [1] turned out to be 0.062 µg/mL (≈ 0.131 µM); in test [2] it was 4.1 µg/mL (≈ 8.69 µM). Further, the “antihistamine action after 4 hours” value in test [3] was “no longer possible to measure reliably an antihistamine action”.

The values above are taken from patent US5077301A, “4-(hydroxydiphenylmethyl)-1-piperidylphenylalkane derivatives as antihistamines and methods of treatment of an allergic response” (Schaper & Bruemmer GmbH & Co. KG, priority 1989, dated 1991).
